Test results from US20100331348A1, “TROPANE DERIVATIVES USEFUL AS PESTICIDES” (SYNGENTA CROP PROTECTION, INC., priority 2007, published 2010).
Read-outs that look alike come from different tables or passages of the source.

How the values were obtained:
[1] = tested on: Pythium ultimum; test: Pythium ultimum (Damping off) growth inhibition in potato dextrose broth; format: cell-based; conditions: Globisporangium ultimum, 48 hours, read-out: control of fungal infection, Pythium ultimum
[2] = tested on: Puccinia recondita f.sp. tritici; test: Puccinia recondita f.sp. tritici (wheat brown rust) leaf disk assay; format: in vivo; conditions: foliar, 216 h, preventive, nine days after inoculation, read-out: control of fungal infection, Puccinia recondita f.sp. tritici
[3] = tested on: Erysiphe graminis f.sp. tritici; test: Erysiphe graminis f.sp. tritici (wheat powdery mildew) leaf disk assay; format: in vivo; conditions: Blumeria graminis, foliar, 96 h, preventive, four days after inoculation, read-out: control of fungal infection, Erysiphe graminis fsp. tritici
[4] = tested on: Phytophthora infestans; test: whole plant or invertebrate; format: in vivo; conditions: foliar, 96 h, read-out: control of fungal infection, Phytophthora infestans
[5] = tested on: Pyricularia oryzae; test: whole plant or invertebrate; format: in vivo; conditions: foliar, 96 h
[6] = tested on: Aedes aegypti; test: Aedes aegypti (Yellow fever mosquito) larvae test; format: in vivo; conditions: 48 h
[7] = tested on: Tetranychus urticae; conditions: foliar, 192 h, read-out: control of Tetranychus urticae
[8] = tested on: Heliothis virescens; test: Heliothis virescens (Tobacco budworm) egg test on artificial diet; conditions: 96 h, read-out: control of Heliothis virescens
[9] = tested on: Plutella xylostella; test: Plutella xylostella (Diamond back moth) artificial diet test; conditions: 120 h, read-out: control of Plutella xylostella
[10] = read-out: control of fungal infection, Pyricularia oryzae (at least 60% list)
[11] = read-out: control of fungal infection, Pyricularia oryzae (at least 80% list)

Compound | melting point [°C] | inhibition of growth at 200 ppm [1] [%] | pest or weed control at 200 ppm [2] [%] | pest or weed control at 200 ppm [3] [%] | pest or weed control at 200 ppm [4] [%] | pest or weed control at 200 ppm [5, 10] [%] | pest or weed control at 2 ppm [6] [%] | pest or weed control at 200 ppm [5, 11] [%] | pest or weed control at 200 ppm [7] [%] | pest or weed control at 200 ppm [8] [%] | pest or weed control at 200 ppm [9] [%]
FC(F)(F)c1cccc(OC2C[C@H]3CC[C@@H](C2)N3c2ccnc3cc(Cl)ccc23)n1 (some centres unmarked) [Example 2.174] | 177 | ≥ 60 |  |  |  |  |  |  |  |  | 
Cc1csc(CC2CC3CCC(C2)N3c2ncnc3sccc23)n1 (centres unmarked) [Example 7.16] | 132 | ≥ 60 | ≥ 80 |  |  |  |  |  |  |  | 
COc1ccc(CON=C2CC3CCC(C2)N3c2ncnc3sccc23)cc1 [Example 5.165] |  | ≥ 60 |  | ≥ 80 | ≥ 80 |  |  |  |  |  | 
FC(F)(F)c1cccc(OC2C[C@H]3CC[C@@H](C2)N3c2ccnc3c(Cl)cccc23)n1 (some centres unmarked) [Example 2.175] | 116 | ≥ 60 |  |  | ≥ 80 | ≥ 60 |  |  |  |  | 
c1ccc(CON=C2CC3CCC(C2)N3c2ncnc3sccc23)nc1 [Example 5.149] |  | ≥ 60 | ≥ 80 | ≥ 80 |  |  | ≥ 80 | ≥ 80 |  |  | 
CS(=O)(=O)c1ccc(CON=C2CC3CCC(C2)N3c2ncnc3sccc23)cc1 [Example 5.248] |  | ≥ 60 | ≥ 80 | ≥ 80 | ≥ 80 |  |  |  | ≥ 80 |  | 
CCc1ncnc(N2C3CCC2CC(=NOCc2ccc(S(C)(=O)=O)cc2)C3)c1Cl [Example 5.106] |  | ≥ 60 | ≥ 80 | ≥ 80 | ≥ 80 |  |  |  | ≥ 80 |  | 
CCc1ncnc(N2C3CCC2CC(=NOCc2cc(OC)nc(N)n2)C3)c1Cl [Example 5.91] |  | ≥ 60 | ≥ 80 | ≥ 80 | ≥ 80 |  |  |  |  |  | 
CCc1ncnc(N2C3CCC2CC(=NOCc2ccccn2)C3)c1Cl [Example 5.41] |  | ≥ 60 | ≥ 80 | ≥ 80 | ≥ 80 |  | ≥ 80 |  |  | ≥ 80 | 
Fc1cc(F)cc(CON=C2CC3CCC(C2)N3c2ncnc3sccc23)c1 [Example 5.205] |  | ≥ 60 | ≥ 80 | ≥ 80 | ≥ 80 |  |  | ≥ 80 |  |  | 
Fc1cccc(CON=C2CC3CCC(C2)N3c2ncnc3sccc23)c1F [Example 5.219] |  | ≥ 60 | ≥ 80 | ≥ 80 | ≥ 80 | ≥ 60 | ≥ 80 | ≥ 80 |  |  | ≥ 80
Fc1cccc2c(N3[C@@H]4CC[C@H]3CC(Oc3cc(C(F)(F)F)ccn3)C4)ccnc12 (some centres unmarked) [Example 2.185] |  | ≥ 60 |  | ≥ 80 | ≥ 80 | ≥ 60 |  |  |  |  | 
CCc1ncnc(N2C3CCC2CC(=NOCc2ccncc2)C3)c1Cl [Example 5.6] |  | ≥ 60 | ≥ 80 |  | ≥ 80 |  | ≥ 80 |  | ≥ 80 |  | 
Cc1ccc(OC2C[C@H]3CC[C@@H](C2)N3c2ccnc3c2c(C)nn3C)cn1 (some centres unmarked) [Example 2.164] | 153 | ≥ 60 |  | ≥ 80 |  |  |  |  |  |  | 
CCc1ncnc(N2C3CCC2CC(=NOCC2CC2)C3)c1Cl [Example 5.3] |  | ≥ 60 | ≥ 80 | ≥ 80 |  |  | ≥ 80 |  |  |  | 
Fc1cccc2c(N3[C@@H]4CC[C@H]3CC(Oc3cccc(C(F)(F)F)n3)C4)ccnc12 (some centres unmarked) [Example 2.172] | 133 | ≥ 60 |  |  |  |  |  |  |  |  | 
